The values that follow come from patent US5073571A, “Method of inhibiting virus” (priority 1989, dated 1991).

One data set deals with H9 cells. As to the kind of experiment: [3H]leucine and [3H]thymidine labeling (protein and DNA synthesis) in HIV-1 infected H9 cells. Particulars: day 10. The format is cell-based, human. On the procedure: (§1) Media was changed every other day. The effect of these compounds on virus production was determined by measuring the reverse transcriptase (RT) activity in samples of the cell culture supernatants. […] Negative controls consisted of no additions or 0.1ethanol. The results of duplicate assays were averaged. Panel B -Concentration-dependent effects of 13-oxamyristic acid on HIV-1 replication as measured by RT activity (percent of untreated control) and the presence of p24 antigen (ng/ml determined by ELISA). Error bars indicate the S.E.M. of assays done in triplicate. […] Panel D - Toxicity of 13-oxamyristic acid determined by viable cell count (trypan blue exclusion), as well as by [^3 H]thymidine and [^3 H]leucine labeling (see under Materials and Methods, Example 16, below). The incorporation of these radiolabeled compounds was determined in the total cell population contained in a well after 10 days of treatment with the analog. […]
Toxicity Studies. […] Cell survival was determined by trypan-blue exclusion. The number of unstained cells/mL in the treated cultures was divided by the number of unstained cells/mL in the untreated control cultures and expressed as percent control. Protein synthesis was measured at the end of the treatment periods by metabolic labeling for 4 hrs with L-[4,5^3 H(N)]-leucine (2 μCi/mL media, specific activity =140 Ci/mmol). […]

In data set [1] the test system is HIV-1. As to the kind of experiment: HIV-1 replication in H9 cells, p24 antigen ELISA. The class given is cell-based, HIV-1 strain HXB2gptX (in human H9 cells). Particulars: 20-40 μM range. On the procedure:
as §1
Assay for HIV-1 Replication. […] The titer of the virus stock was determined by serial dilution using syncytia formation and reverse transcriptase activity (see below) as a measure of infectivity in H9 cells. […]
Virus Assays. Virus was quantitated using supernatant solutions of cells harvested on day 8 (m.o.i.=0.01) or day 10 (m.o.i.=0.001) of treatment. […]
(In general: In an ELISA, binding on a coated surface is turned into a signal by an enzyme label.)

Data set [2] relates to HIV-1. As to the kind of experiment: Syncytia assay in HIV-1 infected H9 cells. The format is cell-based, HIV-1 strain HXB2gptX (in human H9 cells). Particulars: H9 cells. As to the method:
Media was changed every other day. The effect of these compounds on virus production was determined by measuring the reverse transcriptase (RT) activity in samples of the cell culture supernatants. […] Negative controls consisted of no additions or 0.1ethanol. The results of duplicate assays were averaged. Panel B -Concentration-dependent effects of 13-oxamyristic acid on HIV-1 replication as measured by RT activity (percent of untreated control) and the presence of p24 antigen (ng/ml determined by ELISA). Error bars indicate the S.E.M. of assays done in triplicate. Panel C - The effect of 13-oxamyristic acid on syncytia formation using an arbitrary scale described under Materials and Methods, Example 16, below. Panel D - Toxicity of 13-oxamyristic acid determined by viable cell count (trypan blue exclusion), as well as by [^3 H]thymidine and [^3 H]leucine labeling (see under Materials and Methods, Example 16, below). The incorporation of these radiolabeled compounds was determined in the total cell population contained in a well after 10 days of treatment with the analog. Duplicate assays were performed and the results averaged.
Assay for HIV-1 Replication. The human T-lymphoid cell line, H9, was provided by R. D. Gallo (NIH) and maintained in RPMI-1640 medium supplemented with 10% fetal bovine serum, 100 IU/mL penicillin, 100 μg/mL streptomycin an 2 mM L-glutamine. […] The titer of the virus stock was determined by serial dilution using syncytia formation and reverse transcriptase activity (see below) as a measure of infectivity in H9 cells. […]
Syncytia Assay. The number of syncytia in each well was determined by microscopic examination on days 4-6 (infected, untreated control cultures), 8 and 10 (analog or decanoate treated cultures). The average number of multi-nucleated giant cells counted per 10 low-power fields (LPF =40 times magnification) was assigned to an arbitrary syncytia scale: 0=<1/LPF, 1+=1-4/LPF, 2+=5-7/LPF, 3+= 8-10/LPF, 4+=>10/LPF. By this criteria uninfected, control cells had zero synctia, and infected, untreated H9 cells were consistently scored as 4+.

The test system of another data set is uninfected H9 cells. As to the kind of experiment: Metabolic labeling tests using uninfected H9 cells. The class given is cell-based, human. Particulars: 0.1 to 100 μM. As to the method: Toxicity Studies. These analyses were conducted for both assay systems. Cell survival was determined by trypan-blue exclusion. The number of unstained cells/mL in the treated cultures was divided by the number of unstained cells/mL in the untreated control cultures and expressed as percent control. Protein synthesis was measured at the end of the treatment periods by metabolic labeling for 4 hrs with L-[4,5^3 H(N)]-leucine (2 μCi/mL media, specific activity =140 Ci/mmol). All cells contained in a given well of a 24 well plate were recovered by scraping, the protein precipitated by TCA (final concentration =10%) and the solution subsequently incubated at 100° C. for 5 min prior to passage over glass fiber filters (Whatman). In the case of the H-9 assay, treated or untreated cells were pulsed labeled at the conclusion of the 10 day incubation. For the MoMLV assay, labeling studies were performed on LZ1 virus producing cells at the conclusion of the 2 day treatment period. An additional control test was performed on NIH 3T3 cells that had never been exposed to virus but which had been incubated with media (± analog) for two days. DNA synthesis was assessed on day 10 of the H9 assay. Cells were labeled for 12 h with [5'-^3 H]thymidine (0.5 μCi/mL, specific activity =2 Ci/mmol). All the cells in a well were harvested by scraping, their nucleic acid precipitated with TCA (final concentration =10%), and then collected on glass fiber filters prior to counting.
The cellular toxicity of 13-oxamyristate was analyzed using three independent assays of cell viability. First, viable cell number was determined at the conclusion of the 10 day treatment period using trypan blue exclusion. The percentage of living cells in untreated, HIV-1 infected cultures was reduced by 50% compared to that of untreated, uninfected cells (FIG. 1D). This reflects the cytopathic effects encountered with this strain of HIV-1 [Ratner et al., Nature 313, 277-284 (1985)]. […] To further investigate this hypothesis, the effects of increasing concentrations of the analog on DNA and protein synthesis were determined.

On to `COCCCCCCCCCCCC(=O)O` [13-oxamyristate, 12-(Methoxy)dodecanoic acid], for which, in the data set on H9 cells, the “[3H]leucine labeling” value is listed as “correlated with the cell survival data” and the “[3H]thymidine labeling” value is listed as “correlated with the cell survival data”. Moreover, the “reduction in virus replication (p24 ELISA)” value in the data set on HIV-1 [1] is recorded as “greater than 90%”. Moreover, the “reduction in syncytia compared with AZT” value in the data set on HIV-1 [2] (40-80 μM vs 5 μM AZT) is recorded as “comparable to that obtained with 5 μM AZT”. Further, the “syncytia reduction compared with RT and p24 assays” value in the data set on HIV-1 [2] (FIG. 1C) was “paralleled the results of the reverse transcriptase and p24 ELISA assays”. In the data set with uninfected H9 cells, the DNA synthetic rates entry is reported as “no significant effects”, the growth rates entry was “no significant effects” and the protein synthetic rates entry was “no significant effects”.
